Experimental data published in US20240043427A1 (Gilead Sciences, Inc., priority 2020, published 2024).

biological target: T1, CD73 (Homo sapiens (Human), UniProt P21589); test: not given; type: biochemical; settings: 1 mM NaH2PO4 in enzyme buffer, CD73 0.3 nM, AMP 15 uM
T1 sequence (P21589 27-574): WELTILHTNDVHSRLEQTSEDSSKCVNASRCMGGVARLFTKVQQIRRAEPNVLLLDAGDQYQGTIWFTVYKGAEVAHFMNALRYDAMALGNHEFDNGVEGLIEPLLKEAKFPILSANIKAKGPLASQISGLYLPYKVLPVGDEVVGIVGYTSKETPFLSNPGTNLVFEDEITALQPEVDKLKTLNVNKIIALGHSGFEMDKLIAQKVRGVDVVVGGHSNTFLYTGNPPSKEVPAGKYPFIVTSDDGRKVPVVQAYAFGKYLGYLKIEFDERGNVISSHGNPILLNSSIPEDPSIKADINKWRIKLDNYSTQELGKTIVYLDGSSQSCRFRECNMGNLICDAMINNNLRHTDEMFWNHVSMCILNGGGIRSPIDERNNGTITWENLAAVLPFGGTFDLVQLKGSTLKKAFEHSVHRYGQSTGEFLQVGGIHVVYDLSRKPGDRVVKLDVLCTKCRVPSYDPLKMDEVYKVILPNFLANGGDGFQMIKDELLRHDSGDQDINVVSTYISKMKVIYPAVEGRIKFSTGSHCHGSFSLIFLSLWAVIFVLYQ

| SMILES | IC50 [nM] |
| --- | --- |
| O=c1[nH]cc(-c2cc([C@@H]3C[C@H]3c3cc(F)c(F)c(F)c3)c3nccn3n2)c(=O)[nH]1 (racemic) [Example 36] | 2.72 |
| CC(C)n1ncc2ccc([C@H]3C[C@@H]3c3cc(-c4c[nH]c(=O)[nH]c4=O)nn4ccnc34)cc21 (racemic) [Example 119, 5-(8-((1S,2S)-2-(1-isopropyl-1H-indazol-6-yl)cyclopropyl)imidazo[1,2-b]pyridazin-6-yl)pyrimidine-2,4(1H,3H)-dione and 5-(8-((1R,2R)-2-(1-isopropyl-1H-indazol-6-yl)cyclopropyl)imidazo[1,2-b]pyridazin-6-yl)pyrimidine-2,4(1H,3H)-dione] | 0.56 |
| O=c1[nH]cc(-c2cc([C@H]3C[C@@H]3c3ccc(OC(F)F)nc3)c3ncc(F)n3n2)c(=O)[nH]1 (racemic) [Example 121, 5-(8-((1S,2S)-2-(6-(difluoromethoxy)pyridin-3-yl)cyclopropyl)-3-fluoroimidazo[1,2-b]pyridazin-6-yl)pyrimidine-2,4(1H,3H)-dione and 5-(8-((1R,2R)-2-(6-(difluoromethoxy)pyridin-3-yl)cyclopropyl)-3-fluoroimidazo[1,2-b]pyridazin-6-yl)pyrimidine-2,4(1H,3H)-dione] | 1.08 |
| O=c1[nH]cc(-c2cc([C@H]3C[C@@H]3c3ccc4cnn(CC(F)F)c4c3)c3nccn3n2)c(=O)[nH]1 (racemic) [Example 123, 5-(8-((1S,2S)-2-(1-(2,2-difluoroethyl)-1H-indazol-6-yl)cyclopropyl)imidazo[1,2-b]pyridazin-6-yl)pyrimidine-2,4(1H,3H)-dione and 5-(8-((1R,2R)-2-(1-(2,2-difluoroethyl)-1H-indazol-6-yl)cyclopropyl)imidazo[1,2-b]pyridazin-6-yl)pyrimidine-2,4(1H,3H)-dione] | 0.69 |
| CC(C)(O)[C@H]1C[C@@H]1c1cc(-c2c[nH]c(=O)[nH]c2=O)nn2ccnc12 (racemic) [Example 463, 5-(8-((1S,2S)-2-(2-hydroxypropan-2-yl)cyclopropyl)imidazo[1,2-b]pyridazin-6-yl)pyrimidine-2,4(1H,3H)-dione] | 61.9 |
| O=c1[nH]cc(-c2cc([C@H]3C[C@@H]3c3ccc(F)c(F)c3F)c3nccn3n2)c(=O)[nH]1 (racemic) [Example 464, 5-(8-((1S,2S)-2-(2,3,4-trifluorophenyl)cyclopropyl)imidazo[1,2-b]pyridazin-6-yl)pyrimidine-2,4(1H,3H)-dione] | 1.47 |
| N#Cc1ccc(F)c([C@H]2C[C@@H]2c2cc(-c3c[nH]c(=O)[nH]c3=O)nn3ccnc23)c1 (racemic) [Example 466, 3-((1S,2S)-2-(6-(2,4-dioxo-1,2,3,4-tetrahydropyrimidin-5-yl)imidazo[1,2-b]pyridazin-8-yl)cyclopropyl)-4-fluorobenzonitrile] | 3.47 |
| O=c1[nH]cc(-c2cc([C@H]3C[C@@H]3c3c(F)ccc(F)c3F)c3nccn3n2)c(=O)[nH]1 (racemic) [Example 468, 5-(8-((1S,2S)-2-(2,3,6-trifluorophenyl)cyclopropyl)imidazo[1,2-b]pyridazin-6-yl)pyrimidine-2,4(1H,3H)-dione] | 1.67 |
| O=c1[nH]cc(-c2cc([C@H]3C[C@@H]3c3cc4c(cn3)cnn4CC(F)(F)F)c3ncc(Cl)n3n2)c(=O)[nH]1 (racemic) [Example 471, 5-(3-chloro-8-((1S,2S)-2-(1-(2,2,2-trifluoroethyl)-1H-pyrazolo[4,3-c]pyridin-6-yl)cyclopropyl)imidazo[1,2-b]pyridazin-6-yl)pyrimidine-2,4(1H,3H)-dione] | 0.7 |
| CC1(C)C(=O)N(CC(F)(F)F)c2cc([C@H]3C[C@@H]3c3cc(-c4c[nH]c(=O)[nH]c4=O)nn4ccnc34)ncc21 (racemic) [Example 718, 5-[8-[(1S,2S)-2-[3,3-dimethyl-2-oxo-1-(2,2,2-trifluoroethyl)pyrrolo[3,2-c]pyridin-6-yl]cyclopropyl]imidazo[1,2-b]pyridazin-6-yl]-1H-pyrimidine-2,4-dione] | 3.07 |
| O=c1[nH]cc(-c2cc([C@H]3C[C@@H]3c3cc(OCC(F)(F)F)c4ncccc4c3)c3nccn3n2)c(=O)[nH]1 (racemic) [Example 732, 5-(8-((1S,2S)-2-(8-(2,2,2-trifluoroethoxy)quinolin-6-yl)cyclopropyl)imidazo[1,2-b]pyridazin-6-yl)pyrimidine-2,4(1H,3H)-dione] | 2.66 |
| O=C1N(CC2(F)CC2)c2cc([C@H]3C[C@@H]3c3cc(-c4c[nH]c(=O)[nH]c4=O)nn4c(F)cnc34)ccc2C12CC2 (racemic) [Example 735, 5-(3-fluoro-8-((1S,2S)-2-(1′-((1-fluorocyclopropyl)methyl)-2′-oxospiro[cyclopropane-1,3′-indolin]-6′-yl)cyclopropyl)imidazo[1,2-b]pyridazin-6-yl)pyrimidine-2,4(1H,3H)-dione] | 2.94 |
| O=C1N(CC(F)(F)F)c2cc([C@H]3C[C@@H]3c3cc(-c4c[nH]c(=O)[nH]c4=O)nn4ccnc34)c(F)cc2C12CC2 (racemic) [Example 748, 5-(8-((1S,2S)-2-(5′-fluoro-2′-oxo-1′-(2,2,2-trifluoroethyl)spiro[cyclopropane-1,3′-indolin]-6′-yl)cyclopropyl)imidazo[1,2-b]pyridazin-6-yl)pyrimidine-2,4(1H,3H)-dione] | 2.5 |
| O=C1N(CC(F)(F)F)c2cc([C@H]3C[C@@H]3c3cc(-c4c[nH]c(=O)[nH]c4=O)nn4ccnc34)ccc2C12CC2 (single isomer, unassigned) [Example 391] | 1.01 |
| O=C(c1ccc([C@H]2C[C@@H]2c2cc(-c3c[nH]c(=O)[nH]c3=O)nn3c(F)cnc23)cc1)N1CC(F)(F)C1 [Example 313, 5-(8-((1S,2S)-2-(4-(3,3-difluoroazetidine-1-carbonyl)phenyl)cyclopropyl)-3-fluoroimidazo[1,2-b]pyridazin-6-yl)pyrimidine-2,4(1H,3H)-dione] | 2.35 |
| O=c1[nH]cc(-c2cc([C@H]3C[C@@H]3c3cnn(C(F)F)c3)c3ncc(F)n3n2)c(=O)[nH]1 [Example 371, 5-(8-((1S,2S)-2-(1-(difluoromethyl)-1H-pyrazol-4-yl)cyclopropyl)-3-fluoroimidazo[1,2-b]pyridazin-6-yl)pyrimidine-2,4(1H,3H)-dione] | 4.95 |
| O=c1[nH]cc(-c2cc([C@H]3C[C@@H]3c3ccc(OC(F)(F)F)cn3)c3nccn3n2)c(=O)[nH]1 [Example 373, 5-(8-((1S,2S)-2-(5-(trifluoromethoxy)pyridin-2-yl)cyclopropyl)imidazo[1,2-b]pyridazin-6-yl)pyrimidine-2,4(1H,3H)-dione] | 2.56 |
| O=c1[nH]cc(-c2cc([C@H]3C[C@@H]3c3cc4c(cn3)cnn4CC(F)(F)F)c3ncc(F)n3n2)c(=O)[nH]1 [Example 611, 5-(3-fluoro-8-((1S,2S)-2-(1-(2,2,2-trifluoroethyl)-1H-pyrazolo[4,3-c]pyridin-6-yl)cyclopropyl)imidazo[1,2-b]pyridazin-6-yl)pyrimidine-2,4(1H,3H)-dione] | 0.4 |
| O=c1[nH]cc(-c2cc([C@H]3C[C@@H]3c3cc4c(cnn4CC(F)(F)F)cc3F)c3ncc(F)n3n2)c(=O)[nH]1 [Example 613, 5-(3-fluoro-8-((1S,2S)-2-(5-fluoro-1-(2,2,2-trifluoroethyl)-1H-indazol-6-yl)cyclopropyl)imidazo[1,2-b]pyridazin-6-yl)pyrimidine-2,4(1H,3H)-dione] | 0.58 |
| O=C1N(CC(F)(F)F)c2cc([C@H]3C[C@@H]3c3cc(-c4c[nH]c(=O)[nH]c4=O)nn4c(Cl)cnc34)ccc2C12CC2 [Example 740, 5-(3-chloro-8-((1S,2S)-2-(2′-oxo-1′-(2,2,2-trifluoroethyl)spiro[cyclopropane-1,3′-indolin]-6′-yl)cyclopropyl)imidazo[1,2-b]pyridazin-6-yl)pyrimidine-2,4(1H,3H)-dione] | 0.61 |
| O=C1N(CC(F)(F)F)c2cc([C@H]3C[C@@H]3c3cc(-c4c[nH]c(=O)[nH]c4=O)nn4c(Cl)c(Cl)nc34)ccc2C12CC2 [Example 741, 5-(2,3-dichloro-8-((1S,2S)-2-(2′-oxo-1′-(2,2,2-trifluoroethyl)spiro[cyclopropane-1,3′-indolin]-6′-yl)cyclopropyl)imidazo[1,2-b]pyridazin-6-yl)pyrimidine-2,4(1H,3H)-dione] | 0.49 |

biological target: T1, CD73; test: MDA-MB-231 Cell Based CD73 Activity Assay (DMEM); settings: MDA-MB-231-GFP cells, DMEM medium with 10% human plasma, 200 uM AMP
Protocol: MDA-MB-231 Cell Based CD73 Activity Assay (DMEM) MDA-MB-231-GFP cells were seeded in 384-well plates (Greiner 781946) at a density of 3000 cells per well in 50 μL of DMEM medium with 10% HP (human plasma). Cells were plated into assay plate with compounds pre-spotted, for an overnight compound treatment. 50 uL of 400 uM AMP (final concentration will be 200 uM) was added using Bio-tek dispenser. Plates were incubated for 100 mins. […] The samples were analyzed using Rapid fire.

| SMILES | EC50 [nM] |
| --- | --- |
| O=c1[nH]cc(-c2cc([C@@H]3C[C@H]3c3cc(F)c(F)c(F)c3)c3nccn3n2)c(=O)[nH]1 (racemic) [Example 36] | 2.53 |
| CC(C)n1ncc2ccc([C@H]3C[C@@H]3c3cc(-c4c[nH]c(=O)[nH]c4=O)nn4ccnc34)cc21 (racemic) [Example 119, 5-(8-((1S,2S)-2-(1-isopropyl-1H-indazol-6-yl)cyclopropyl)imidazo[1,2-b]pyridazin-6-yl)pyrimidine-2,4(1H,3H)-dione and 5-(8-((1R,2R)-2-(1-isopropyl-1H-indazol-6-yl)cyclopropyl)imidazo[1,2-b]pyridazin-6-yl)pyrimidine-2,4(1H,3H)-dione] | 1.09 |
| O=c1[nH]cc(-c2cc([C@H]3C[C@@H]3c3ccc(OC(F)F)nc3)c3ncc(F)n3n2)c(=O)[nH]1 (racemic) [Example 121, 5-(8-((1S,2S)-2-(6-(difluoromethoxy)pyridin-3-yl)cyclopropyl)-3-fluoroimidazo[1,2-b]pyridazin-6-yl)pyrimidine-2,4(1H,3H)-dione and 5-(8-((1R,2R)-2-(6-(difluoromethoxy)pyridin-3-yl)cyclopropyl)-3-fluoroimidazo[1,2-b]pyridazin-6-yl)pyrimidine-2,4(1H,3H)-dione] | 19.7 |
| O=c1[nH]cc(-c2cc([C@H]3C[C@@H]3c3ccc4cnn(CC(F)F)c4c3)c3nccn3n2)c(=O)[nH]1 (racemic) [Example 123, 5-(8-((1S,2S)-2-(1-(2,2-difluoroethyl)-1H-indazol-6-yl)cyclopropyl)imidazo[1,2-b]pyridazin-6-yl)pyrimidine-2,4(1H,3H)-dione and 5-(8-((1R,2R)-2-(1-(2,2-difluoroethyl)-1H-indazol-6-yl)cyclopropyl)imidazo[1,2-b]pyridazin-6-yl)pyrimidine-2,4(1H,3H)-dione] | 0.37 |
| O=c1[nH]cc(-c2cc(N3CCC4(C3)CC4(F)F)c3nccn3n2)c(=O)[nH]1 (stereo not drawn) [Example 192] | 20.9 |
| O=c1[nH]cc(-c2cc(N3CC4CC(F)(C4)C3)c3nccn3n2)c(=O)[nH]1 [Example 579, 5-(8-(1-fluoro-3-azabicyclo[3.1.1]heptan-3-yl)imidazo[1,2-b]pyridazin-6-yl)pyrimidine-2,4(1H,3H)-dione] | 111 |
| O=c1[nH]cc(-c2cc([C@H]3C[C@@H]3c3ccc4cnn(CC(F)(F)F)c4c3F)c3ncc(F)n3n2)c(=O)[nH]1 [Example 630, 5-(3-fluoro-8-((1S,2S)-2-(7-fluoro-1-(2,2,2-trifluoroethyl)-1H-indazol-6-yl)cyclopropyl)imidazo[1,2-b]pyridazin-6-yl)pyrimidine-2,4(1H,3H)-dione] | 0.08 |
| CC(C)(C)COc1cc(-c2c[nH]c(=O)[nH]c2=O)nn2ccnc12 [Example 679, 5-(8-(neopentyloxy)imidazo[1,2-b]pyridazin-6-yl)pyrimidine-2,4(1H,3H)-dione] | 124 |
| CC(C)NC(=O)O[C@H]1CN(c2cc(-c3c[nH]c(=O)[nH]c3=O)nc3ccnn23)CC1(F)F [Example 713, (S)-1-(5-(2,4-dioxo-1,2,3,4-tetrahydropyrimidin-5-yl)pyrazolo[1,5-a]pyrimidin-7-yl)-4,4-difluoropyrrolidin-3-yl isopropylcarbamate] | 0.39 |
